In patent US12099051B2 (priority 2022, dated 2024):
Converted amounts (≈) assume the structure as drawn. “And” between values parts separate entries of the source, which are not always exact repeats. Equal entries are not always repeated.

Assays:
[1] = tested on: Caenorhabditis elegans mutant strain Daf-2 (e1370); conditions: in vivo
[2] = tested on: Caenorhabditis elegans mutant strain Daf-16 (mu86); conditions: in vivo
[3] = tested on: Caenorhabditis elegans mutant strain Daf-16 (mu86); conditions: in vivo; remark: listed apart in the source
[4] = tested on: Caenorhabditis elegans (N2 wild-type); assay: whole plant or invertebrate; type: in vivo
[5] = tested on: Caenorhabditis elegans mutant strain Daf-2 (e1370); conditions: in vivo; remark: listed apart in the source
[6] = tested on: Caenorhabditis elegans (N2 wild-type); conditions: in vivo
[7] = tested on: Caenorhabditis elegans; conditions: in vivo

## O=C1C=C2C(=CCOC2O)O1 (stereo not shown) [PAT, Patulin]
[1]
  spawning rate of Daf-2 mutant strain compared with N2: no significant difference from N2
[2]
  body length ratio of Daf-16 mutant strain compared with N2 wild type: higher body length ratio than the N2 wild type
[3]
  spawning rate of Daf-16 mutant strain compared with N2 wild-type: higher spawning rate than the N2 wild-type
[4]; Caenorhabditis elegans, 24 h
  EC50: 44.2 µg/mL (≈ 287 µM)
[4]; in vivo
  body length ratio: 64.45% and 55.55%
  concentration at which nematode's body length is significantly confined (P<0.001): 25 µg/mL
[5]
  effect of Daf-2 gene silencing on developmental toxicity: does not slow down the developmental toxicity
[6]
  concentration at which nematode's spawning rate is significantly confined (P<0.001): 5 µg/mL
  spawning rate: 49.41%
[7]
  relative fluorescence intensity ratio (ROS): 136.92% and 149.43%
